Legend:
[1] = test system: T-Lymphocytes (CD4 subset) in whole blood; format: cell-based, human
[2] = test system: T-lymphocytes in whole blood; format: cell-based, human
[3] = test system: T lymphocytes (CD4 subset) in whole blood; test: Whole blood ATP response after stimulation with PHA, 2-24 hr (Example 2); format: cell-based, human; details: PHA 1%
Description: Aliquots of the blood were diluted 1:10 in RPMI 1640. Replicates received either no addition or the mitogen PHA at 1% final concentration. Samples were incubated at 37° C. […] The cells and beads were placed next to a permanent magnet positioned such that the magnetic field was in a direction perpendicular to gravity. […] Assay Reagent (luciferin/luciferase) was added to the samples ATP production was determined as described above. […] The response is clearly evident at 4 hours of incubation, peaks at 8 hours, and remains high at 24 hrs post stimulation.

[4] = test system: T-Lymphocytes (CD4 subset) in whole blood; test: T-lymphocyte ATP response to PHA in normal and HIV infected donors (Example 4); details: PHA 10 ug/mL, overnight incubation, anti-CD4 beads

Substance	increase in ATP over background [1]	time within which activation of the T lymphocyte subset is detected [1] [h]	increase in ATP over background [2]	increase in ATP over background ([3]; all time points (2, 4, 6, 8, 24 hr))	time of peak ATP response ([3]; time course 2-24 hr) [h]	ATP response to PHA, HIV+ population versus normal donors [4]
Tetanus Toxoid	significant	≤ 5	increase in ATP over background	–	–	–
Phytohemagglutinin [PHA]	statistically significant increase	≤ 0.5	–	increase in ATP over background	8	lower than the normal donor population

Source: patent US20070243576A1, “Method to confirm immunosuppression in human patients by measuring lymphocyte activation” (priority 2001, published 2007)
